Test results taken from ChEMBL document CHEMBL4152235, “Synthesis, anionophoric activity and apoptosis-inducing bioactivity of benzimidazolyl-based transmembrane anion transporters” (Eur J Med Chem, 2018).
Activity calls are given as the source filed them. The rule behind the calls is not given here.

Legend:
[1] = (§1) Ionophoric activity across pyranine dye encapsulated pH 7 egg yolk L-alpha-phosphatidylcholine-based liposomal membranes assessed as chloride ion transport by measuring initial rate constant for induction of pH discharge at 9.77 x 10^-4 mol% after 20 mins in presence of NaCl loaded external vesicles by fluorescence method (reference value: 5.03 +/- 1.02 10^-3/min)
[2] = Ionophoric activity across pyranine dye encapsulated pH 7 egg yolk L-alpha-phosphatidylcholine-based liposomal membranes assessed as chloride ion transport by measuring induction of pH discharge at 1.95 x 10^-3 mol% after 20 mins in presence of RbCl loaded external vesicles by fluorescence method
[3] = Ionophoric activity across pyranine dye encapsulated pH 7 egg yolk L-alpha-phosphatidylcholine-based liposomal membranes assessed as bromide ion transport by measuring induction of pH discharge at 1.95 x 10^-3 mol% after 20 mins in presence of NaBr loaded external vesicles by fluorescence method
[4] = Ionophoric activity across pyranine dye encapsulated pH 7 egg yolk L-alpha-phosphatidylcholine-based liposomal membranes assessed as chloride ion transport by measuring induction of pH discharge at 1.95 x 10^-3 mol% after 20 mins in presence of KCl loaded external vesicles by fluorescence method
[5] = Ionophoric activity across pyranine dye encapsulated pH 7 egg yolk L-alpha-phosphatidylcholine-based liposomal membranes assessed as chloride ion transport by measuring induction of pH discharge at 1.95 x 10^-3 mol% after 20 mins in presence of CsCl loaded external vesicles by fluorescence method
MCF7 [6] = assay: Cytotoxicity against human MCF7 cells assessed as reduction in cell viability up to 10 uM after 12 hrs in presence of chloride by MTT assay; format: functional, cell-based
[7] = Ionophoric activity across pyranine dye encapsulated pH 7 egg yolk L-alpha-phosphatidylcholine-based liposomal membranes assessed as chloride ion transport by measuring induction of pH discharge after 20 mins in presence of NaCl loaded external vesicles by fluorescence method relative to m-Bimbe
MCF7 [8] = assay: Cytotoxicity against human MCF7 cells assessed as reduction in cell viability after 48 hrs by MTT assay; format: functional, cell-based; details: MCF7, 48 h
[9] = Ionophoric activity across lucigenin probe encapsulated pH 7 egg yolk L-alpha-phosphatidylcholine-based large unilamellar vesicles loaded with Na2SO4 assessed as chloride ion efflux at 7.81 x 10^-3mol% after 20 mins in presence of NaCl/Na2SO4 loaded external vesicles by fluorescence method
[10] = as §1, with “7.81” for “9.77”, “10^-3” for “10^-4”
HeLa [11] = assay: Cytotoxicity against human HeLa cells assessed as reduction in cell viability up to 10 uM after 12 hrs in presence of chloride by MTT assay; format: functional, cell-based
HeLa [12] = assay: Ionophoric activity across human HeLa cells assessed as chloride ion efflux at 10 uM after 3 hrs by acridine orange staining based fluorescence microscopic analysis; format: cell-based
[13] = as §1, with “3.91” for “9.77”, “10^-3” for “10^-4”
[14] = Ionophoric activity across lucigenin probe encapsulated pH 7 egg yolk L-alpha-phosphatidylcholine-based large unilamellar vesicles loaded with Na2SO4 assessed as chloride ion efflux at 7.81 x 10^-3mol% after 20 mins in presence of NaCl loaded external vesicles by fluorescence method
[15] = Ionophoric activity across pyranine dye encapsulated pH 7 egg yolk L-alpha-phosphatidylcholine-based liposomal membranes assessed as nitrate ion transport by measuring induction of pH discharge at 1.95 x 10^-3 mol% after 20 mins in presence of NaNO3 loaded external vesicles by fluorescence method
HeLa [16] = assay: Induction of apoptosis in human HeLa cells assessed as chromatin condensation at 2.5 uM after 24 hrs by Hoechst 33342 staining based fluorescence microscopic analysis; format: functional, cell-based
HeLa [17] = assay: Induction of apoptosis in human HeLa cells assessed as chromatin fragmentation at 2.5 uM after 24 hrs by Hoechst 33342 staining based fluorescence microscopic analysis; format: functional, cell-based
[18] = Binding affinity to chloride ion at 1.5 x 10^-5M using tetra(n-butyl)ammonium chloride measured after 5 mins by spectrophotometric titration method
MCF7 [19] = assay: Cytotoxicity against human MCF7 cells assessed as reduction in cell viability at 50 uM after 48 hrs by MTT assay relative to control; format: functional; details: MCF7, 48 h
[20] = Ionophoric activity across pyranine dye encapsulated pH 7 egg yolk L-alpha-phosphatidylcholine-based liposomal membranes assessed as chloride ion transport by measuring induction of pH discharge at 1.95 x 10^-3 mol% after 20 mins in presence of NaCl loaded external vesicles by fluorescence method
[21] = as §1, with “1.95” for “9.77”, “10^-3” for “10^-4”
[22] = Ionophoric activity across pyranine dye encapsulated pH 7 egg yolk L-alpha-phosphatidylcholine-based liposomal membranes assessed as chloride ion transport by measuring induction of pH discharge after 20 mins in presence of NaCl loaded external vesicles by fluorescence method
[23] = Ionophoric activity across pyranine dye encapsulated pH 7 POPC-cholesterol-based liposomal membranes assessed as chloride ion transport by measuring induction of pH discharge at 7.81 x 10^-3mol% after 20 mins in presence of NaCl loaded external vesicles by fluorescence method
HeLa [24] = assay: Induction of apoptosis in human HeLa cells assessed as formation of bean shaped nuclei at 2.5 uM after 24 hrs by Hoechst 33342 staining based fluorescence microscopic analysis; format: functional, cell-based
HeLa [25] = assay: Disruption of mitochondrial membrane potential in human HeLa cells assessed as decrease in ratio of red to green fluorescence at 5 to 10 uM after 24 hrs by JC1 staining based fluorescence microscopic analysis; format: functional, cell-based
[26] = Ionophoric activity across pyranine dye encapsulated pH 7 egg yolk L-alpha-phosphatidylcholine-based liposomal membranes assessed as iodide ion transport by measuring induction of pH discharge at 1.95 x 10^-3 mol% after 20 mins in presence of NaI loaded external vesicles by fluorescence method
HeLa [27] = assay: Ionophoric activity across human HeLa cells assessed as chloride ion efflux up to 10 uM after 2 hrs by MQAE dye based fluorescence assay; format: cell-based
[28] = as §1, with “4.88” for “9.77”
L02 = assay: Cytotoxicity against human LO2 cells assessed as reduction in cell viability after 48 hrs by MTT assay; format: cell-based; details: L02, 48 h
HeLa [29] = assay: Cytotoxicity against human HeLa cells assessed as reduction in cell viability up to 10 uM after 12 hrs in absence of chloride by MTT assay; format: functional, cell-based
[30] = Binding affinity to chloride ion assessed as 1:1 compound-Cl- complex formation at 4.1 mM using tetra(n-butyl)ammonium chloride by ESI MS spectrometric method
HeLa [31] = assay: Induction of apoptosis in human HeLa cells assessed as formation of apoptotic bodies at 2.5 uM after 24 hrs by Hoechst 33342 staining based fluorescence microscopic analysis; format: functional, cell-based
MCF7 [32] = assay: Cytotoxicity against human MCF7 cells assessed as reduction in cell viability up to 10 uM after 12 hrs in absence of chloride by MTT assay; format: functional, cell-based
A549 [33] = assay: Cytotoxicity against human A549 cells assessed as reduction in cell viability at 50 uM after 48 hrs by MTT assay relative to control; format: functional; details: A549, 48 h
A549 [34] = assay: Cytotoxicity against human A549 cells assessed as reduction in cell viability after 48 hrs by MTT assay; format: functional, cell-based; details: A549, 48 h
HeLa [35] = assay: Cytotoxicity against human HeLa cells assessed as reduction in cell viability at 50 uM after 48 hrs by MTT assay relative to control; format: functional
HepG2 [36] = assay: Cytotoxicity against human HepG2 cells assessed as reduction in cell viability after 48 hrs by MTT assay; format: functional, cell-based; details: HepG2, 48 h
MCF7 [37] = assay: Ionophoric activity across human MCF7 cells assessed as chloride ion efflux up to 10 uM after 2 hrs by MQAE dye based fluorescence assay; format: cell-based
HepG2 [38] = assay: Cytotoxicity against human HepG2 cells assessed as reduction in cell viability at 50 uM after 48 hrs by MTT assay relative to control; format: functional; details: HepG2, 48 h
HeLa [39] = assay: Cytotoxicity against human HeLa cells assessed as reduction in cell viability after 48 hrs by MTT assay; format: functional, cell-based
[40] = Ionophoric activity across pyranine dye encapsulated pH 7 egg yolk L-alpha-phosphatidylcholine-based liposomal membranes assessed as chloride ion transport by measuring induction of pH discharge at 1.95 x 10^-3 mol% after 20 mins in presence of LiCl loaded external vesicles by fluorescence method

**Q.** Which results are given for `O=[N+]([O-])c1cc(-c2nc3ccc(C(F)(F)F)cc3[nH]2)cc(-c2nc3ccc(C(F)(F)F)cc3[nH]2)c1`?
**A.** K [1]: 4.08 ×10⁻² /min; Activity [2]: Active; Activity [3]: inactive; Activity [4]: Active; Activity [5]: Active; Activity (MCF7 [6]): Active; fold change (FC) [7]: 1720; IC50 (MCF7 [8]): 9.4 to 9.7 µM; Activity [9]: inactive; K [10]: 1.87 ×10⁻¹ /min; Activity (HeLa [11]): Active; Activity (HeLa [12]): Active; K [13]: 1.33 ×10⁻¹ /min; Activity [14]: inactive; Activity [15]: inactive; Activity (HeLa [16]): Active; Activity (HeLa [17]): Active; Ka [18]: 7.53 ×10³ /M; inhibition at 50 µM (MCF7 [19]): 99.2%; Activity [20]: Active; K [21]: 8.14 ×10⁻² /min; EC50 [22]: 3.76 ×10⁻³ mol%; EC50 ([22]; read-out: EC50): 0.05 µM; Activity [23]: inactive; Activity (HeLa [24]): Active; Activity (HeLa [25]): Active; Activity [26]: inactive; Activity (HeLa [27]): Active; K [28]: 2.11 ×10⁻² /min; IC50 (L02): 3.7 µM; Activity (HeLa [29]): Active; Activity [30]: Active; Activity (HeLa [31]): Active; Activity (MCF7 [32]): Active; inhibition at 50 µM (A549 [33]): 100%; IC50 (A549 [34]): 3.8 to 3.9 µM; inhibition at 50 µM (HeLa [35]): 94.9%; IC50 (HepG2 [36]): 4.1 µM; Activity (MCF7 [37]): Active; inhibition at 50 µM (HepG2 [38]): 101%; IC50 (HeLa [39]): 1.9 µM; Activity [40]: Active
